From patent publication EP0934746B1, “SUBSTANCE IN THE FORM OF AN AQUEOUS EXTRACT OF VEGETAL RAW MATERIAL FOR TREATING ONCOLOGICAL DISEASES, AND METHOD FOR PRODUCING THE SAME” (Gosudarstvenny Nauchny Tsentr Rossiiskoi Federatsii …, priority 1996, dated 1998)

What was measured:
[1] = system: lipid peroxidation processes (LPP) in murine liver homogenate; assay: Antioxidant activity: inhibition of lipid peroxidation processes (LPP) in liver homogenate, thiobarbituric acid colour reaction; format: biochemical, BDF-1 (nondescript) mice; conditions: conventional unit = quantity required for 50% inhibition of LPP; 3 h at 37°C
Procedure: The antioxidant activity of the extracts was determined from the ability of a sample to inhibit the lipid peroxidation processes (LPP) in murine liver homogenate.
The antioxidant activity was used by using a method based on the ability of the sample being investigated to inhibit LPP processes in murine liver homogenate. The liver of BDF-1 (nondescript) mice was homogenized in a glass homogenizer and then centrifugated. The liver homogenate was introduced in an amount of 5-6 mg of protein per assay. The volume of the assay was brought to 0.5 ml with a solution of the sample being tested for the antioxidant activity. The assays were incubated for 3 h at 37°C.
The concentration of the LPP products was determined from the color reaction with thiobarbituric acid. The quantity of the antioxidant required for the 50% inhibition of LPP was adopted as a conventional unit of the sample under investigation.

[2] = system: cell culture of human pulmonary adenocarcinoma A-549; assay: Cytotoxic activity in vitro: inhibition of proliferation of A-549 cell culture, colorimetric; format: cell-based
Procedure: The cytotoxic activity of the extracts in vitro was determined with the help of a biological test based on inhibition of the proliferation of the inoculated cell culture of human pulmonary adenocarcinoma A-549 [7].
When carrying out the cytotoxic biological test in vitro, each well of a flat-bottomed 96-well microtiter (Sarstedt, USA) was charged with 10 µl of a suspension of A549-line cells in a concentration of 1x10^5 cell/ml; 24 h later series dilutions of the vegetable preparations in the range of 1:4-1:64 were added, this corresponding to 3.0-0.1 mg/ml in the volume of 100 µl/well. The cytotoxic activity of the extracts and DDP was estimated colorimetrically. The results were expressed in the percentage of inhibition of the A-549 test-culture proliferation. The cytotoxic activity of the sample was adopted to be the maximum titer of the sample, at which the biologically significant (50%) level of inhibition of the A-549 test-culture proliferation was observed.

[3] = system: Lymphoid leukemia L1210; assay: Influence of extract samples on curative effect of DDP in L1210 leukemia (TGI, LI); format: in vivo, mice BDF1; conditions: for TGI, % days 4: day 4; for TGI, % days 6: day 6; for TGI, % days 8: day 8; for LI, %: lifetime increase
Procedure: In addition, the effect of the extracts on the therapeutic activity of the cytostatic cis-dichlorodiamine platinum (DDP) was estimated.
Lymphoid leukemia L1210 was inoculated to BDF1 males in a sterile physiologic salt solution, 3x10^6 cells in 0.2 ml volume. The day of the inoculation was regarded as the zero day of tumor growth. The extract samples and DDP were administered in the doses and under the conditions specified in Tables 4, 5.
Treatment of the animals was started 24 hours after the tumor inoculation, control animals were administered a physiologic salt solution instead of the vegetable extracts. The antitumoric effect was estimated from the tumor growth inhibition (TGI) calculated from theformula: TGI = [(Vcontrol - Vexperiment)/Vcontrol]x100%; [formula] mean lifetime (ML), lifetime increase (LI) calculated from the formula: LI = [(MLexperiment - MLcontrol)/Mlcontrol]x100%. [formula] TGI > 50%, LI > 50% were considered to be biologically significant effects.
The obtained data were processed in accordance with the Fisher-Student procedure, using statistical programs. The differences were regarded confident at p < 0.05.

In the case of `O=C1O[C@H]([C@@H](O)CO)C(O)=C1O` [Ascorbic acid (vitamin C), Ascorbic acid], the “Antioxidant activity, conv. units (1/mg)” value [1] is reported as 12 conv. units (1/mg).

In the case of `N.N.[Cl][Pt][Cl]` [DDP, cis-dichlorodiamine platinum], the “Inhibition, %” value ([2]; A-549 proliferation, at the titer/concentration in the column beside it) is reported as 68%, the “Maximum titer (as concentration)” value ([2]; DDP control) is reported as 10 µg/mL and the “ability to inhibit proliferation of the cell culture A-549” value ([2]; at the concentration of 0.01 mg/ml) is reported as 68%. For the same compound, the “TGI, % days 4” value ([3]; DDP alone 9 mg/kg) was 100%, the “TGI, % days 6” value ([3]; DDP alone 9 mg/kg) was 93% and the “TGI, % days 8” value ([3]; DDP alone 9 mg/kg) was 33%. For the same compound, the “LI, %” value ([3]; DDP alone 9 mg/kg) was 41%, the “TGI, % days 4” value ([3]; DDP alone 10 mg/kg) was 100% and the “TGI, % days 6” value ([3]; DDP alone 10 mg/kg) was 87%. The “TGI, % days 8” value ([3]; DDP alone 10 mg/kg) was 65% and the “LI, %” value ([3]; DDP alone 10 mg/kg) was 32%.

With `CC1=C(/C=C/C(C)=C/C=C/C(C)=C/C=C/C=C(C)/C=C/C=C(C)/C=C/C2=C(C)CCCC2(C)C)C(C)(C)CCC1` [β-Carotene] the “Antioxidant activity, conv. units (1/mg)” value [1] was 6 conv. units (1/mg).

For “Retinol acetate [Retinol acetate (vitamin A)]”, the “Antioxidant activity, conv. units (1/mg)” value [1] was 83 conv. units (1/mg).
